The source of these data is US12168664B2, “Triazolopyrimidines, their preparation and use” (THE TRUSTEES OF COLUMBIA UNIVERSITY IN THE CITY OF NEW YORK, priority 2018, dated 2024).

For one data set, the target named is human RBP4 (Homo sapiens (Human), UniProt P02753). In words: SPA binding assay for RBP4 (scintillation proximity, 3H-retinol displacement). To be noted: 10 nM 3H-retinol, 50 nM biotinylated RBP4. As to the method:
Scintillation Proximity RBP4 Binding Assay
Untagged human RBP4 purified from the urine of tubular proteinuria patients was purchased from Fitzgerald Industries International. It was biotinylated using the EZ-Link Sulfo-NHS-LC-Biotinylation kit from Pierce following the manufacturer's recommendations. […] Nonspecific binding was determined in the presence of 20 μM of unlabeled retinol. The reaction mix was assembled in the dark under dim red light. The plates were sealed with clear tape (TopSeal-A: 96-well microplate, PerkinElmer), wrapped in the aluminum foil, and allowed to equilibrate 6 hours at room temperature followed by overnight incubation at +4° C. Radiocounts were measured using a TopCount NXT counter (Packard Instrument Company).
(§1) The compounds listed below were tested in two in vitro assays, RBP4 binding (SPA) and retinol-dependent RBP4-TTR interaction (HTRF) (Table 1).

The target in the next data set is RBP4-TTR interaction (Homo sapiens (Human), UniProt P02753). The experiment in a line: HTRF (TR-FRET) assay for antagonists of retinol-induced RBP4-TTR interaction. It counts as biochemical. To be noted: in the presence of 1 μM retinol.
Excerpt: TR-FRET Assay for Retinol-Induced RBP4-TTR Interaction
Binding of a desired RBP4 antagonist displaces retinol and induces hindrance for RBP4-TTR interaction resulting in the decreased FRET signal (FIG. 7). Bacterially expressed MBP-RBP4 and untagged TTR were used in this assay. For the use in the TR-FRET assay, the maltose binding protein (MBP)-tagged human RBP4 fragment (amino acids 19-201) was expressed in the Gold(DE3)pLysS E. coli strain (Stratagene) using the pMAL-c4x vector. Following cell lysis, recombinant RBP4 was purified from the soluble fraction using the ACTA FPLC system (GE Healthcare) equipped with the 5-ml the MBP Trap HP column. Human untagged TTR was purchased from Calbiochem. Untagged TTR was labeled directly with Eu^3+ Cryptate-NHS using the HTRF Cryptate Labeling kit from CisBio following the manufacturer's recommendations. HTRF assay was performed in white low volume 384 well plates (Greiner-Bio) in a final assay volume of 16 μl per well. […] Titration of test compounds in this assay was conducted in the presence of 1 μM retinol. […] TR-FRET signal was measured in the SpectraMax M5e Multimode Plate Reader (Molecular Device). […] The TR-FRET signal was expressed as the ratio of fluorescence intensity: Flu665/Flu620×10,000.
as §1

In a further data set the target is PPARγ (Homo sapiens (Human), UniProt P37231). In words: PPARγ agonist assay (HTRF, PPARγ-NCOR interaction). The class given is biochemical. Conditions: read-out: PPAR γ assay (HTRF) for agonists of this nuclear receptor - IC50. The text has this:
Significant safety issues are associated with the clinical use of PPARγ agonists (increased risk of death, myocardial infarction, stroke, congestive heart failure, hepatotoxicity, peripheral edema, weight gain and carcinogenicity^1-4). We wanted to characterize the compounds we identified in a pilot screen as potential PPARγ agonists. The PPARγ assay is based on agonist-sensitive interaction of the GST-tagged ligand-binding domain (LRD) of the nuclear receptor PPARγ with the biotinylated corepressor NCOR peptide (FIG. 8).
Assay reactions are performed in a final volume of 16 ul.
In well of the 384-well assay plate, mix 6 ul of PPARγ solution, 4 ul of NCOR2 solution and 4 μl of Rosi solution. Test compounds diluted from DMSO stocks to 4× assay concentration in 1×HTRF, 100 mM KF buffer may be dispensed to well instead of Rosi. Negative control wells contained DMSO solvent alone; positive control well contained […]. […] Two μl of detection mix was added per well. […] The plate was incubated for 16 hrs at 4° C.
HTRF signal was measured in the SpectraMax M5e Multimode Plate Reader (Molecular Device). Fluorescence was excited at 337 nm. […] The signal was expressed as the ratio of fluorescence intensity: Flu668/Flu620×10,000. […]

Data set [1] in a line: Metabolic stability in liver microsomes (HLM). It counts as in vitro ADME, human. How it is done:
(§2) The compounds listed below were tested in various metabolic stability and CYP inhibition assays.

Another data set has as its target CYP2C9 (Homo sapiens (Human), UniProt P11712). The experiment in a line: CYP inhibition, fluorescent, CYP2C9. The class given is in vitro ADME. How it is done:
as §2

The next data set has as its target CYP2C19 (Homo sapiens (Human), UniProt P33261). The experiment in a line: CYP inhibition, fluorescent, CYP2C19. It counts as in vitro ADME. How it is done:
as §2

The next data set has as its target CYP2D6 (Homo sapiens (Human), UniProt P10635). In words: CYP inhibition, fluorescent, CYP2D6. The class given is in vitro ADME. As to the method: as §2
The target of a further data set is CYP3A4 (Homo sapiens (Human), UniProt P08684). The experiment in a line: CYP inhibition, fluorescent, CYP3A4. It counts as in vitro ADME. How it is done:
as §2

Where “and” joins values, the source holds several entries; their conditions need not be identical. Equal values may be shown once.

CYP2C9, sequence (P11712 whole entry, species assumed): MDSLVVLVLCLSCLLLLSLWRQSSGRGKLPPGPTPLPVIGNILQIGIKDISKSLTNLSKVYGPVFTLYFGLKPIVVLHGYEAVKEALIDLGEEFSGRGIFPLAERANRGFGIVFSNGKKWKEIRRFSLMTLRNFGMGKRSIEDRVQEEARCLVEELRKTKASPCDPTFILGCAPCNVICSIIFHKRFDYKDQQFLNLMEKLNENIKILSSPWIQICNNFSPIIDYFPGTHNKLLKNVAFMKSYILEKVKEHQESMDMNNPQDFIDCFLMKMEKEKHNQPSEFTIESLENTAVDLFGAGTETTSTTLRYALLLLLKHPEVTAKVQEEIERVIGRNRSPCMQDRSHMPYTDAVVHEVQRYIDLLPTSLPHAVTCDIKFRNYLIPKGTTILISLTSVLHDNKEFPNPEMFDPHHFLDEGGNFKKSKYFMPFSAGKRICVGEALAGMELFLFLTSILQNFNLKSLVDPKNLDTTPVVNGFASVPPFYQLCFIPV
CYP2D6, sequence (P10635 whole entry, species assumed): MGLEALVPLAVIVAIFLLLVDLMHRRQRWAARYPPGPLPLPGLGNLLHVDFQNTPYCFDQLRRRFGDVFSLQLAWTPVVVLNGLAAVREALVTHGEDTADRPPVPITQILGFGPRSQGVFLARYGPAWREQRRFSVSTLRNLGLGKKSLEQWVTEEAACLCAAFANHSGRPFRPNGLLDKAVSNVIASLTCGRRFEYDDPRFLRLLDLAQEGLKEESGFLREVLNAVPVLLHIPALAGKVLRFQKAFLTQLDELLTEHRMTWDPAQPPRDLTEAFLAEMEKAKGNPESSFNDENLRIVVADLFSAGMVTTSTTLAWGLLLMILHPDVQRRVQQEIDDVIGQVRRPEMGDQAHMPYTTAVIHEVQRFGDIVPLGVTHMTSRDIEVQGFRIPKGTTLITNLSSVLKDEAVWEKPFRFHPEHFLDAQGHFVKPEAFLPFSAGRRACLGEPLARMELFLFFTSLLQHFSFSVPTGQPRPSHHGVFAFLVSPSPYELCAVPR
CYP3A4, sequence (P08684 whole entry, species assumed): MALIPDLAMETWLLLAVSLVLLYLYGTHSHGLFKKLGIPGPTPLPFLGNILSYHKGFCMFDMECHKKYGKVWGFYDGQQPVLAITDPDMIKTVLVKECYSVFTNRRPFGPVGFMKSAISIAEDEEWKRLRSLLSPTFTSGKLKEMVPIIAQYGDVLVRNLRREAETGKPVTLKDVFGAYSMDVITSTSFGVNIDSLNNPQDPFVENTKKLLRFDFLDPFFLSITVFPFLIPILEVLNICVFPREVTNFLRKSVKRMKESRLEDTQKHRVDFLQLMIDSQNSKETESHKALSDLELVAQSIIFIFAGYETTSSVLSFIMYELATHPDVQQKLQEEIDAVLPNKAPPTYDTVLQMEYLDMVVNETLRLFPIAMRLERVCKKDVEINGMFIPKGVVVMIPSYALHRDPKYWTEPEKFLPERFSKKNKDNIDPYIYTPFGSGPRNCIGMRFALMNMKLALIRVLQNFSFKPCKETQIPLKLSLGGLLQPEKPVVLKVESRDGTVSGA
CYP2C19, sequence (P33261 whole entry, species assumed): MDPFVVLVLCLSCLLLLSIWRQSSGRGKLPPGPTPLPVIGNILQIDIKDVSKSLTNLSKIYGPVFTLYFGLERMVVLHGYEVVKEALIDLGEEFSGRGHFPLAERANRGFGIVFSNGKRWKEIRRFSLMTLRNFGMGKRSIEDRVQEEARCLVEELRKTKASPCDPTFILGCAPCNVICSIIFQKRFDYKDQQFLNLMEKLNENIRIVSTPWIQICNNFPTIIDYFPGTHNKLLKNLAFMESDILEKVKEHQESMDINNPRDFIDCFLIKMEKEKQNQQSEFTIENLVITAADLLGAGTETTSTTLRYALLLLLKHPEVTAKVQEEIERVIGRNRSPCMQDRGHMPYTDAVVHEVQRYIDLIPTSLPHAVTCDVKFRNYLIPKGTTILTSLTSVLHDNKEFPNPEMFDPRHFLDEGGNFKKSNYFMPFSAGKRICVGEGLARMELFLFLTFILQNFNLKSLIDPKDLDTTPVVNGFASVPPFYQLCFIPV
PPARγ, sequence (P37231 204-505): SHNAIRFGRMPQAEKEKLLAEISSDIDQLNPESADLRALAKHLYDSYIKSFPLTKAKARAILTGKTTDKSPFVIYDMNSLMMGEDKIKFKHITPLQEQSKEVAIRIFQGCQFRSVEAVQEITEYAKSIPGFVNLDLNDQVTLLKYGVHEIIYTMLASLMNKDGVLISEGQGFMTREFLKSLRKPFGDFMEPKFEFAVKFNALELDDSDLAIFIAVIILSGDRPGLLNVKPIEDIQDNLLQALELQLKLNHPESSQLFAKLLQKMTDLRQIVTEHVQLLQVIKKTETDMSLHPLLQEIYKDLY

Turning to `O=C(c1nnc2ncccn12)N1C[C@H]2C[C@@H](c3ccccc3C(F)(F)F)C[C@H]2C1` [Compound 7b], the IC50 at human RBP4 was 0.046 µM; on RBP4-TTR interaction it was 0.661 µM; at PPARγ, greater than 100 µM.

As for `O=C(c1nc2ncc(Br)cn2n1)N1C[C@H]2C[C@@H](c3ccccc3C(F)(F)F)C[C@H]2C1` [Compound 7c], the values for the IC50 on human RBP4, on RBP4-TTR interaction and on PPARγ were 0.039 µM, 0.949 µM and greater than 100 µM, respectively.

With `Cc1ccnc2nc(C(=O)N3C[C@H]4C[C@@H](c5ccccc5C(F)(F)F)C[C@H]4C3)nn12` [Compound 7d], the IC50 is 0.122 µM at human RBP4; 0.306 µM and 1.85 µM and 2.8 µM on RBP4-TTR interaction; greater than 100 µM at PPARγ.

Consider `Cc1cnc2nc(C(=O)N3C[C@H]4C[C@@H](c5ccccc5C(F)(F)F)C[C@H]4C3)nn2c1` [Compound 7e], for which the IC50 on PPARγ is greater than 100 µM; on CYP2C9, 16 µM and 50 µM; against CYP2C19 it was greater than 100 µM; at CYP2D6, 12.4 µM and 36 µM. Further, the “Metabolic stability in liver microsomes: % Remaining at 30 min, HLM” value in data set [1] was 85% and 66%.

As for `Cc1cc(C)n2nc(C(=O)N3C[C@H]4C[C@@H](c5ccccc5C(F)(F)F)C[C@H]4C3)nc2n1` [Compound 7f], the IC50 on human RBP4 was 0.108 µM; at RBP4-TTR interaction, 4.58 µM and 7.44 µM; at PPARγ, greater than 100 µM.

As to `Cc1ccn2c(C(=O)N3C[C@H]4C[C@@H](c5ccccc5C(F)(F)F)C[C@H]4C3)nnc2n1` [Compound 7g], the half-maximal inhibitory concentration (IC50) on human RBP4 is 0.045 µM; at RBP4-TTR interaction it was 0.415 µM; on PPARγ it was greater than 100 µM; at CYP2C19, greater than 100 µM; against CYP2D6, greater than 100 µM; against CYP3A4, greater than 100 µM. In addition, the “Metabolic stability in liver microsomes: % Remaining at 30 min, HLM” value in data set [1] came out at 61%.

Regarding `O=C(c1nc2ncccn2n1)N1C[C@H]2C[C@@H](c3cc(F)ccc3C(F)(F)F)C[C@H]2C1` [Compound 7h], the IC50 on human RBP4 was 0.038 µM; on RBP4-TTR interaction, 0.41 µM; at PPARγ, greater than 100 µM.

With `O=C(c1nc2ncc(CCO)cn2n1)N1C[C@H]2C[C@@H](c3cc(F)ccc3C(F)(F)F)C[C@H]2C1` [Compound 7i], the IC50 at RBP4-TTR interaction turned out to be 0.494 µM.

On to `O=C(c1nc2ncc(CCO)cn2n1)N1C[C@H]2C[C@@H](c3ccccc3C(F)(F)F)C[C@H]2C1` [Compound 7j], for which the IC50 at human RBP4 is 0.016 µM; on RBP4-TTR interaction, 0.2 µM; on PPARγ, greater than 100 µM; against CYP2C9 it was 60 µM; at CYP2C19, greater than 100 µM; on CYP2D6 it was greater than 100 µM. For the same compound, the IC50 on CYP3A4 was greater than 100 µM. In addition, the “Metabolic stability in liver microsomes: % Remaining at 30 min, HLM” value in data set [1] was 73%.

Turning to `COCCc1cnc2nc(C(=O)N3C[C@H]4C[C@@H](c5ccccc5C(F)(F)F)C[C@H]4C3)nn2c1` [Compound 7k], the IC50 at human RBP4 was 0.067 µM; at RBP4-TTR interaction, 1.01 µM; at PPARγ, greater than 100 µM.

For the compound `CC(=O)OCCc1cnc2nc(C(=O)N3C[C@H]4C[C@@H](c5ccccc5C(F)(F)F)C[C@H]4C3)nn2c1` [Compound 7l], the IC50 is 0.023 µM at human RBP4, 0.23 µM at RBP4-TTR interaction and greater than 100 µM on PPARγ.

Regarding `NCCc1cnc2nc(C(=O)N3C[C@H]4C[C@@H](c5ccccc5C(F)(F)F)C[C@H]4C3)nn2c1` [Compound 7m], the figures for the IC50 on human RBP4, at RBP4-TTR interaction and at PPARγ were 0.247 µM, 1.47 µM and greater than 100 µM, respectively.

For `O=C(c1nc2ncc(CCCl)cn2n1)N1C[C@H]2C[C@@H](c3ccccc3C(F)(F)F)C[C@H]2C1` [Compound 7n], the IC50 at human RBP4 was 0.067 µM; at RBP4-TTR interaction, 0.628 µM; at PPARγ it was greater than 100 µM.

On to `O=C(c1nc2ncc(CCO)cn2n1)N1C[C@@H]2CN(c3ccccc3C(F)(F)F)C[C@@H]2C1` [Compound 7o], for which the IC50 on human RBP4 is 0.022 µM; on RBP4-TTR interaction, 0.257 µM; at PPARγ, greater than 100 µM; at CYP2C19, greater than 20 µM; at CYP2D6 it was greater than 20 µM; against CYP3A4, greater than 20 µM.

In the case of `O=C(c1nc2ncc(CCO)cn2n1)N1C[C@@H]2CN(c3cc(F)ccc3C(F)(F)F)C[C@@H]2C1` [Compound 7q], the IC50 is 0.031 µM on human RBP4, 0.491 µM at RBP4-TTR interaction and greater than 100 µM on PPARγ. In addition, in data set [1], the “Metabolic stability in liver microsomes: % Remaining at 30 min, HLM” value stood at 26%.

With `O=C(c1c[nH]c2cnccc12)N1C[C@H]2C[C@@H](c3ccccc3C(F)(F)F)C[C@H]2C1` [Compound 8a], the IC50 on RBP4-TTR interaction is greater than 30 µM.

On to `O=C(c1c[nH]c2ccncc12)N1C[C@H]2C[C@@H](c3ccccc3C(F)(F)F)C[C@H]2C1` [Compound 8b], for which the IC50 on RBP4-TTR interaction was greater than 30 µM.

`O=C(c1nc2ncccn2n1)N1C[C@H]2C[C@@H](c3ccccc3C(F)(F)C(F)(F)F)C[C@H]2C1` [Compound 9a] had an IC50 at human RBP4 of 0.0273 µM.

Take `Cc1ccn2c(C(=O)N3C[C@H]4C[C@@H](c5ccccc5OC(F)(F)F)C[C@H]4C3)nnc2n1` [Compound 9c]: the IC50 at human RBP4 was 0.0829 µM; on RBP4-TTR interaction it was 1.13 µM.

As to `O=C(c1cnc2ncccn12)N1C[C@H]2C[C@@H](c3ccccc3OC(F)(F)F)C[C@H]2C1` [Compound 9d], the IC50 came to 0.0881 µM at human RBP4 and 1.45 µM on RBP4-TTR interaction.

Regarding `Cc1cnc2nc(C(=O)N3C[C@H]4C[C@@H](c5ccccc5OC(F)(F)F)C[C@H]4C3)nn2c1` [Compound 9f], the IC50 on human RBP4 was determined as 0.0571 µM; at RBP4-TTR interaction, 0.45 µM.

On to `O=C(c1cn2cccnc2n1)N1C[C@H]2C[C@@H](c3ccccc3OC(F)(F)F)C[C@H]2C1` [Compound 9g], for which the IC50 on human RBP4 is 0.0784 µM; at RBP4-TTR interaction, 0.741 µM.

For `Cc1ccn2cc(C(=O)N3C[C@H]4C[C@@H](c5ccccc5OC(F)(F)F)C[C@H]4C3)nc2c1` [Compound 9h], the results for the IC50 on human RBP4 and at RBP4-TTR interaction were 0.104 µM and 2.48 µM, respectively.

As for `O=C(c1nc2nc(C(F)(F)F)ccn2n1)N1C[C@H]2C[C@@H](c3ccccc3OC(F)(F)F)C[C@H]2C1` [Compound 9i], the IC50 on human RBP4 turned out to be 0.443 µM; on RBP4-TTR interaction it was 20.4 µM.

For the compound `O=C(c1nc2ncccn2n1)N1C[C@H]2C[C@@H](c3ccccc3OC(F)(F)F)C[C@H]2C1` [Compound 9j], on RBP4-TTR interaction, the IC50 is 0.551 µM and 0.473 µM.

On human RBP4, `Cc1ccccc1[C@@H]1C[C@@H]2CN(C(=O)c3nc4ncccn4n3)C[C@@H]2C1` [Compound 10a] gave an IC50 of 14.8 µM.

As to `CC(C)c1ccccc1[C@@H]1C[C@@H]2CN(C(=O)c3nc4ncccn4n3)C[C@@H]2C1` [Compound 10c], the IC50 on RBP4-TTR interaction turned out to be 0.0408 µM.

Turning to `O=C(c1nc2ncccn2n1)N1C[C@H]2C[C@@H](c3ccccc3-c3ccccc3)C[C@H]2C1` [Compound 10d], the IC50 on RBP4-TTR interaction stood at 0.3 µM.
